Where two headings read alike, the source gives them in different places.
Assays:
[1] = physicochemical properties: solubility
Bacillus subtilis DSM 10 [2] = assay: MIC dilution series test; assay type: cell-based; settings: 2 ml test tube scale, shaker at 120 rpm
Experimental: (§1) The minimum inhibitory concentration (MIC) of abyssomicin C was determined in a dilution series test. As expected, the test organisms are substantially more sensitive to abyssomicin C in chemically defined medium.

[3] = system: Rhodococcus erythropolis DSM 1069; assay: MIC dilution series test; assay type: cell-based; settings: CM (complex medium); 2 ml test tube scale, shaker at 120 rpm
Experimental: as §1

[4] = system: Staphylococcus aureus DSM 20231; assay: MIC dilution series test; assay type: cell-based; settings: CM (complex medium); 2 ml test tube scale, shaker at 120 rpm
Experimental: as §1

Gram-positive bacteria = assay: agar diffusion test, activity spectrum; assay type: cell-based; settings: Gram-positive bacteria tested
Experimental: (§2) The Gram-negative bacteria and fungi which were tested were insensitive to the abyssomicins.

Bacillus subtilis DSM 10 [5] = assay: agar diffusion test; assay type: cell-based; settings: 10 μl per filter disk
Experimental: as §2

[6] = system: Rhodococcus erythropolis DSM 1069; assay: agar diffusion test; assay type: cell-based; settings: 10 μl per filter disk
Experimental: as §2

[7] = system: Arthrobacter aurescens DSM 20166; assay: agar diffusion test; assay type: cell-based; settings: CM, 10 μl per filter disk
Experimental: as §2

[8] = system: Streptomyces viridochromogenes Tü 57; assay: agar diffusion test; assay type: cell-based; settings: CM, 10 μl per filter disk
Experimental: as §2

[9] = system: Brevibacillus brevis DSM 30; assay: agar diffusion test; assay type: cell-based; settings: 10 μl per filter disk
Experimental: as §2

[10] = system: Staphylococcus aureus DSM 20231; assay: agar diffusion test; assay type: cell-based; settings: CM, 10 μl per filter disk
Experimental: as §2

**Q.** Which solubility ([1]; in methanol and DMSO) does the source give for `CC1CC(C)C2(O)CC(=NO2)C2C(O)C3OC4=C(C(=O)OC42CC3C)C1=O` (stereo not drawn) [abyssomicin B] here?
**A.** soluble

**Q.** With `CC1CC(C)/C(O)=C2/C(=O)OC34CC(C)C5OC23C(CC4C5O)C1=O` (stereo not drawn) [abyssomicin D] as the molecule, how does the solubility ([1]; in methanol and DMSO) read?
**A.** soluble

**Q.** With abyssomicin C as the molecule, how does the “Minimum inhibitory concentration (MIC)” value (Bacillus subtilis DSM 10 [2]; CM (complex medium)) read?
**A.** 10 µg/mL

**Q.** And the “Minimum inhibitory concentration (MIC)” value (Bacillus subtilis DSM 10 [2]; MM (chemically defined medium))?
**A.** 0.1 µg/mL

**Q.** And the “Minimum inhibitory concentration (MIC)” value [3]?
**A.** 10 µg/mL

**Q.** What about the “Minimum inhibitory concentration (MIC)” value [4] of the same molecule?
**A.** 100 µg/mL

**Q.** What about the antibiotic effect (Gram-positive bacteria) of the same molecule?
**A.** antibiotic effect

**Q.** What about the inhibition zone diameter (Bacillus subtilis DSM 10 [5]; CM, 0.1 mg/ml) of the same molecule?
**A.** 10 mm

**Q.** What about the inhibition zone diameter (Bacillus subtilis DSM 10 [5]; CM, 0.3 mg/ml) of the same molecule?
**A.** 12 mm

**Q.** What about the inhibition zone diameter (Bacillus subtilis DSM 10 [5]; CM, 1 mg/ml) of the same molecule?
**A.** 16 mm

**Q.** And the inhibition zone diameter (Bacillus subtilis DSM 10 [5]; MM, 0.1 mg/ml)?
**A.** 14 mm

**Q.** And the inhibition zone diameter (Bacillus subtilis DSM 10 [5]; MM, 0.3 mg/ml)?
**A.** 19 mm

**Q.** What about the inhibition zone diameter (Bacillus subtilis DSM 10 [5]; MM, 1 mg/ml) of the same molecule?
**A.** 26 mm

**Q.** And the inhibition zone diameter ([6]; CM (first line, r17), 0.1 mg/ml)?
**A.** 15 mm

**Q.** And the inhibition zone diameter ([6]; CM (first line, r17), 0.3 mg/ml)?
**A.** 18 mm

**Q.** What about the inhibition zone diameter ([6]; CM (first line, r17), 1 mg/ml) of the same molecule?
**A.** 27 mm

**Q.** And the inhibition zone diameter ([6]; CM (second line, r18), 0.1 mg/ml)?
**A.** 21 mm

**Q.** And the inhibition zone diameter ([6]; CM (second line, r18), 0.3 mg/ml)?
**A.** 28 mm

**Q.** What about the inhibition zone diameter ([6]; CM (second line, r18), 1 mg/ml) of the same molecule?
**A.** 30 mm

**Q.** And the inhibition zone diameter ([7]; 0.3 mg/ml)?
**A.** 10 mm

**Q.** What about the inhibition zone diameter ([7]; 1 mg/ml) of the same molecule?
**A.** 14 mm

**Q.** What about the inhibition zone diameter ([8]; 0.3 mg/ml) of the same molecule?
**A.** 9 mm

**Q.** What about the inhibition zone diameter ([8]; 1 mg/ml) of the same molecule?
**A.** 11 mm

**Q.** And the inhibition zone diameter ([9]; CM, 0.1 mg/ml)?
**A.** 9 mm

**Q.** And the inhibition zone diameter ([9]; CM, 0.3 mg/ml)?
**A.** 12 mm

**Q.** And the inhibition zone diameter ([9]; CM, 1 mg/ml)?
**A.** 17 mm

**Q.** What about the inhibition zone diameter ([9]; MM, 0.1 mg/ml) of the same molecule?
**A.** 19 mm

**Q.** What about the inhibition zone diameter ([9]; MM, 0.3 mg/ml) of the same molecule?
**A.** 24 mm

**Q.** What about the inhibition zone diameter ([9]; MM, 1 mg/ml) of the same molecule?
**A.** 30 mm

**Q.** What about the inhibition zone diameter ([10]; 0.1 mg/ml) of the same molecule?
**A.** 9 mm

**Q.** And the inhibition zone diameter ([10]; 0.3 mg/ml)?
**A.** 11 mm

**Q.** What about the inhibition zone diameter ([10]; 1 mg/ml) of the same molecule?
**A.** 19 mm

**Q.** What about the solubility [1] of the same molecule?
**A.** soluble
